Measured values from ChEMBL document CHEMBL1212798, “High concentration of raltegravir in semen of HIV-infected men: results from a substudy of the EASIER-ANRS 138 trial” (2010).

Experiments:
Format in all cases: functional
[1] = test system: Human immunodeficiency virus 1; test: Antiviral activity against HIV1
[2] = test system: Human immunodeficiency virus 1; test: Antiviral activity against HIV1-infected in human assessed as decrease in semen viral RNA level measured after 5 hrs post dose
[3] = test system: Human immunodeficiency virus 1; test: Antiviral activity against HIV1-infected in human assessed as decrease in plasma viral RNA level measured after 9 hrs post dose

## Cc1nnc(C(=O)NC(C)(C)c2nc(C(=O)NCc3ccc(F)cc3)c(O)c(=O)n2C)o1 [RALTEGRAVIR]
[1]
  Virucidal: 14.6 ng/mL
[2]
  Activity: 100 mL⁻¹
[3]
  Activity: 50 mL⁻¹
